Values of other authors as cited in patent publication US5348950A, “Platinum(II) complex and antitumor agent” (Toray Industries, Inc., priority 1991, dated 1994).

Conditions: background statement

SMILES	anti-tumor activity	side effects
N.N.O=C([O-])C1(C(=O)[O-])CCC1.[Pt+2] [CBDCA, cisdiammine(1,1-cyclobutanedicarboxylato)platinum(II)]	low anti-tumor activity	–
N.N.[Cl][Pt][Cl] [CDDP, cisdiamminedichloroplatinum(II)]	–	strong side effects
